This is an account of results in patent publication US6372746B1, “Derivatives of acyl-piperazinyl-pyrimidines, preparation thereof and application as medicaments” (Laboratorios Del Dr. Esteve, S.A., priority 1997, dated 2002).

Counter-ions that a name gives are not always drawn.

Series [1] deals with mice. Briefly: Sleep-inducing activity: capacity to increase the sleep time induced by barbital. The class given is in vivo. The conditions noted are these: for % Activity (sleep) Dosage 100 mg/kg: product 100 mg/Kg i.p., 15 min after barbital 150 mg/Kg i.v.; for DE50: product i.p. 15 min after barbital 150 mg/Kg i.v., dosage efficacy 50. The procedure:
Sleep-inducing Activity in Mice
Fifteen minutes after the administration of barbital (150 mg/Kg, i.v.), the mice were treated with the product of the study at an initial dose of 100 mg/Kg (i.p.).

The subject of series [2] is mice. The series is described as follows: General anaesthetic activity in mice, I.V. administration. It is filed as in vivo. As to conditions: i.v. caudal vein; for Duration: duration of sleep; for Start (s) / Start: start of sleep. The procedure: General Anaesthetic Activity
The general anaesthetic activity was study in mice, injecting the product of the study in the caudal vein. The start and duration time of sleep were recorded. The results for some of the products of the patent are shown in Table 3 and it can be seen that they show a clear anaesthetic activity with respect to the reference compound (Propofol), with the animals recovering later.

For series [3], the system named is mice. The series is described as follows: Muscular relaxant (miorelaxant) activity in the Irwing mouse test. The class given is in vivo. As to conditions: 80 mg/kg i.p.; for % muscular relaxation at a time of: 1 H: 1 H after administration; for % muscular relaxation at a time of: 2 H: 2 H after administration; for % muscular relaxation at a time of: 3 H: 3 H after administration; for % muscular relaxation at a time of: 4 H: 4 H after administration; for % muscular relaxation at a time of: 5 H: 5 H after administration; for % muscular relaxation at a time of: ½ H: ½ H after administration. Here is the method:
Muscular Relaxant Activity
The mice received the products under study at a dosage of 80 mg/kg, via I.p., and at different times after administration (½, 1, 2, 3, 4 and 5 hours) the body tone and the abdominal tone was evaluated looking at the muscular tension compared to the control animals.

The test system of series [4] is mice. Briefly: Analgesic activity: protection from contortions induced by phenylbenzoquinone. It is filed as in vivo. As to conditions: for DE50 (mg/kg, o.a.): o.a. (orally); for DE50 (mg/kg, o.a.) / DE50 (mg/kg, s.c.): phenylbenzoquinone 5 mg/kg i.p. The procedure:
The analgesic activity of the products of the invention have been studied by evaluation of their effect in the test of contortions induced by phenylbenzoquinone in mice, following the method described by Siegmund E., and coworkers (Proc. Soc. Exp. Biol. Med. 1957, 95: 729-731).
The mice received the products of the study, a different dosage levels, and one later they received an injections i.p. of 5 mg/kg of phenylbenzoquinone. The portions of the mice were registered for the following fifteen minutes and compared the contortions of the control group. The DE50 (dosage efficacy 50) of the pound of Example 4 is shown.

For `COc1ccnc(N2CCN(C(=O)c3ccsc3)CC2)n1` [Example 13, 4-methoxy-2-[4-(3-thienylcarbonyl)-1-piperazinyl]pyrimidine chlorohydrate], in the series with mice [1], the “% Activity (sleep) Dosage 100 mg/kg” value was found to be 77% and the “DE50” value amounted to 41.3 mg/kg.
For `CCCC(C)(COC(N)=O)COC(N)=O` [Meprobamate, reference compound], in the series with mice [1], the “% Activity (sleep) Dosage 100 mg/kg” value is listed as 54% and the “DE50” value stood at 84.5 mg/kg.
On to `COc1ccnc(N2CCN(C(=O)c3ccsc3)CC2)n1` (as salt: HCl) (hydrate or solvate) [Example 13, 4-methoxy-2-[4-(3-thienylcarbonyl)-1-piperazinyl]pyrimidine chlorohydrate], for which the melting point (commonly the temperature, or range, at which the solid turns liquid) fell in the range of 154 to 156 °C.
In the case of `COc1ccnc(N2CCN(C(=O)c3cccs3)CC2)n1` (as salt: HCl) (hydrate or solvate) [Example 4, 4-methoxy-2-[4-(2-thienylcarbonyl)-1-piperazinyl]pyrimidine chlorohydrate], the melting point is 143 to 145 °C.
Take `CC(C)c1cccc(C(C)C)c1O` [Propofol, reference compound]: in the series with mice [2] (dosage 80 mg/kg), the “Duration” value was 0 min and the “Start (s)” value was “No”. Besides, in the series on mice [2] (dosage 106 mg/kg), the “Duration” value was 6.2 min and the “Start” value was 30 s. Further, in the series with mice [2] (dosage 120 mg/kg), the “Duration” value was found to be 3.9 min and the “Start” value is 20 s. In addition, in the series with mice [3], the “% muscular relaxation at a time of: 1 H” value is reported as 100%, the “% muscular relaxation at a time of: 2 H” value was found to be 70%, the “% muscular relaxation at a time of: 3 H” value is reported as 0% and the “% muscular relaxation at a time of: 4 H” value worked out at 0%. In the series on mice [3], the “% muscular relaxation at a time of: 5 H” value came out at 0% and the “% muscular relaxation at a time of: ½ H” value worked out at 100%.
For `COc1ccnc(N2CCN(C(=O)c3cccs3)CC2)n1` [Example 4, 4-methoxy-2-[4-(2-thienylcarbonyl)-1-piperazinyl]pyrimidine chlorohydrate], in the series with mice [2] (dosage 40 mg/kg), the “Duration” value was 1.3 min and the “Start” value turned out to be 15 s. Also, in the series on mice [2] (dosage 80 mg/kg), the “Duration” value is given as 7.4 min and the “Start (s)” value is “Immediate”. For the same compound, in the series on mice [4], the “DE50 (mg/kg, o.a.)” value was determined as 72 mg/kg and the “DE50 (mg/kg, s.c.)” value was 48 mg/kg. Further, the “analgesic activity compared with aspirin (in words)” value in the series on mice [4] (subcutaneously and orally) was “better analgesic activity”. Besides, in the series on mice [1], the “% Activity (sleep) Dosage 100 mg/kg” value was found to be 100% and the “DE50” value came to 8.7 mg/kg. Also, in the series with mice [3], the “% muscular relaxation at a time of: 1 H” value was found to be 90%, the “% muscular relaxation at a time of: 2 H” value was determined as 10%, the “% muscular relaxation at a time of: 3 H” value came to 0% and the “% muscular relaxation at a time of: 4 H” value was 0%. In the series with mice [3], the “% muscular relaxation at a time of: 5 H” value came out at 0% and the “% muscular relaxation at a time of: ½ H” value is given as 100%.
The compound `COc1ccnc(N2CCN(C(=O)c3ccco3)CC2)n1` (as salt: HCl) (hydrate or solvate) [Example 2, 2-[4-(2-furylcarbonyl)-1-piperazinyl]-4-methoxypyrimidine chlorohydrate] came in with a melting point of 162 to 164 °C.
Take `COc1ccnc(N2CCN(C(=O)C3CC3)CC2)n1` [Example 9]: in the series on mice [1], the “% Activity (sleep) Dosage 100 mg/kg” value is 67% and the “DE50” value was 28.1 mg/kg.
As for `Cc1sc2ccccc2c1Cl`, the melting point lay within 175 to 176 °C.
Turning to `CC(=O)Oc1ccccc1C(=O)O` [Aspirin, reference compound], in the series on mice [4], the “DE50 (mg/kg, o.a.)” value is reported as 120 mg/kg and the “DE50 (mg/kg, s.c.)” value was found to be 84 mg/kg.
Take `COc1ccnc(N2CCN(C(=O)c3ccco3)CC2)n1` [Example 2, 2-[4-(2-furylcarbonyl)-1-piperazinyl]-4-methoxypyrimidine chlorohydrate]: in the series on mice [2] (dosage 40 mg/kg), the “Duration” value turned out to be 0.6 min and the “Start” value is 12 s. In the series on mice [2] (dosage 80 mg/kg), the “Duration” value is listed as 5.3 min and the “Start (s)” value is recorded as “Immediate”. Further, in the series on mice [1], the “% Activity (sleep) Dosage 100 mg/kg” value stood at 93% and the “DE50” value is recorded as 14.4 mg/kg.
